# Reference: BindingDB's records for doi:10.7270/Q2251GJ9 (The Scripps Research Institute Molecular Screening Center, 2007)
# Counter-ions that a name gives are not always drawn.
# Biological target: Sphingosine 1-phosphate receptor 1 (Homo sapiens, UniProt P21453)
# Test: direct activation of human S1P1 – cell-based, agonist mode, 60K MLSMR set, dose response (AID 468)
# [1] = inactive by the depositor's call
# Sphingosine 1-phosphate receptor 1, sequence (P21453 whole entry): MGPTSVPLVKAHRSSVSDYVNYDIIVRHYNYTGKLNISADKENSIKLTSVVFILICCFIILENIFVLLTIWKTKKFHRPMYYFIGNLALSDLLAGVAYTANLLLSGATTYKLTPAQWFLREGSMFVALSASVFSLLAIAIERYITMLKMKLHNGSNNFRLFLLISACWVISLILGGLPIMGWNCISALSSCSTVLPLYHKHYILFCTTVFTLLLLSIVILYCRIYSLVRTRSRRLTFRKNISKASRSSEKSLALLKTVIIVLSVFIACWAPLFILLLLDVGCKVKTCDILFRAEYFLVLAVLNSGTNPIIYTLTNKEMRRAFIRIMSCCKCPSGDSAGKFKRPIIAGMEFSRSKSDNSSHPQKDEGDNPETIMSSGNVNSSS
EC50 [µM],EC50 [1] [µM],SMILES
0.106,–,"Clc1ccc(OCCN2CCN(c3ncnc4sccc34)CC2)cc1 [4-[4-[2-(4-chloranylphenoxy)ethyl]piperazin-1-yl]thieno[2,3-d]pyrimidine]"
–,13.3,Cn1nc(CC(=O)Nc2ccc(N3CCN(C(=O)OC(C)(C)C)CC3)cc2)c2ccccc2c1=O [4-[4-[[2-(3-methyl-4-oxo-1-phthalazinyl)-1-oxoethyl]amino]phenyl]-1-piperazinecarboxylic acid tert-butyl ester]
9.19,–,"CCOc1ccc(Cc2nc(-c3nonc3N)no2)cc1OCC [4-[5-(3,4-diethoxybenzyl)-1,2,4-oxadiazol-3-yl]-1,2,5-oxadiazol-3-amine]"
0.207,–,"CCOc1ccc(-c2nc(-c3ccncc3)no2)cc1OCC [4-[5-(3,4-diethoxyphenyl)-1,2,4-oxadiazol-3-yl]pyridine]"
1.61,–,"Cc1ccc(C(C)C)c(OCc2nc(-c3nonc3N)no2)c1 [4-[5-[(5-methyl-2-propan-2-yl-phenoxy)methyl]-1,2,4-oxadiazol-3-yl]-1,2,5-oxadiazol-3-amine]"
9.24,–,c1ccc(N2CCN(Cc3ccnc4ccccc34)CC2)cc1 [4-[(4-phenyl-1-piperazinyl)methyl]quinoline]
–,18.4,CCOC(=O)N1CCC(NC(=O)C2CCCN(Cc3nc(-c4cccc(Cl)c4)oc3C)C2)CC1 (stereo not given) [4-[[1-[[2-(3-chlorophenyl)-5-methyl-oxazol-4-yl]methyl]nipecotoyl]amino]piperidine-1-carboxylic acid ethyl ester]
–,95,"COC(=O)c1ccc(C(c2c(N)n(CC(C)C)c(=O)[nH]c2=O)N2CCN(c3ccccc3)CC2)cc1 (stereo not given) [4-[[6-amino-1-(2-methylpropyl)-2,4-dioxo-5-pyrimidinyl]-(4-phenyl-1-piperazinyl)methyl]benzoic acid methyl ester]"
9.78,–,CCN(CC)c1ccc2cc(NC(=O)CCC(=O)O)c(=O)oc2c1 [4-[[7-(diethylamino)-2-keto-chromen-3-yl]amino]-4-keto-butyric acid]
> 10,–,CN(CC1CCCO1)S(=O)(=O)c1ccc(C(=O)Nc2nc(-c3ccccn3)cs2)cc1 (stereo not given) [4-[methyl(2-oxolanylmethyl)sulfamoyl]-N-[4-(2-pyridinyl)-2-thiazolyl]benzamide]
2.04,–,"CC(=O)c1c(C)[nH]c(C(=O)OCCCCN2C(=O)c3ccccc3C2=O)c1C [4-acetyl-3,5-dimethyl-1H-pyrrole-2-carboxylic acid 4-(1,3-dioxo-2-isoindolyl)butyl ester]"
7.58,–,Cc1ccc2nc(C(F)(F)F)c(C#N)c(N)c2c1 [4-amino-6-methyl-2-(trifluoromethyl)-3-quinolinecarbonitrile]
8.07,–,Nc1nonc1C(=O)NCCNCc1cc(Br)ccc1OCc1ccccc1F [4-amino-N-[2-[[5-bromo-2-(2-fluorobenzyl)oxy-benzyl]amino]ethyl]furazan-3-carboxamide;hydrochloride]
6.9,–,Nc1nonc1C(=O)NCCNCc1cc(Br)ccc1OCc1ccc(F)cc1 [4-amino-N-[2-[[5-bromo-2-(4-fluorobenzyl)oxy-benzyl]amino]ethyl]furazan-3-carboxamide;hydrochloride]
–,88,"Cc1ccc(S(=O)(=O)n2nc(C)c(Br)c2C)c(C)c1C [4-bromanyl-3,5-dimethyl-1-(2,3,4-trimethylphenyl)sulfonyl-pyrazole]"

# More lines, now with the values behind:
SMILES,EC50 [µM],EC50 [1] [µM]
"Cc1nnc2ccc(Oc3ccc(-c4ccccc4)cc3)nn12 [3-methyl-6-(4-phenylphenoxy)-[1,2,4]triazolo[4,3-b]pyridazine]",5.08,–
"Cn1c(=O)oc2cc(S(=O)(=O)N3CCCC(C(=O)N4CC=C(c5ccccc5)CC4)C3)ccc21 (stereo not given) [3-methyl-6-[3-(4-phenyl-3,6-dihydro-2H-pyridine-1-carbonyl)piperidin-1-yl]sulfonyl-1,3-benzoxazol-2-one]",9.63,–
"Oc1ccc(-c2nnc(-c3ccc(O)cc3)nn2)cc1 [4,4'-(1,2,4,5-tetrazine-3,6-diyl)diphenol]",> 10,–
"Cc1cc(C(=O)COC(=O)c2csc3c2CCCC3)c(C)n1C [4,5,6,7-tetrahydro-1-benzothiophene-3-carboxylic acid [2-oxo-2-(1,2,5-trimethyl-3-pyrrolyl)ethyl] ester]",–,18.6
Nc1ccc(N2CCCCCC2)cc1 [4-(1-azepanyl)aniline;hydrochloride],> 10,–
"NC(=O)c1ccc(OCC(F)(F)C(F)(F)C(F)(F)C(F)(F)C(F)(F)C(F)F)cc1 [4-(2,2,3,3,4,4,5,5,6,6,7,7-dodecafluoroheptoxy)benzamide]",8,–
O=C(OC1CCCCC1)c1ccc(NC(=O)c2ccco2)cc1 [4-(2-furoylamino)benzoic acid cyclohexyl ester],–,13.4
"Oc1nnc(Sc2ncnc3sccc23)n1CCc1ccccc1 [4-(2-phenylethyl)-3-(4-thieno[2,3-d]pyrimidinylthio)-1H-1,2,4-triazol-5-one]",–,16.9
"O=C(NCc1ccccc1)N1CCN(c2ccc(Cl)c(Cl)c2)CC1 [4-(3,4-dichlorophenyl)-N-(phenylmethyl)-1-piperazinecarboxamide]",7.15,–
CC(=O)c1ccc(NC(=O)N2CCN(c3cccc(Cl)c3)CC2)cc1 [4-(3-chlorophenyl)-N-(4-ethanoylphenyl)piperazine-1-carboxamide],9.76,–
"c1ccc(N2CCN(c3ncnc4c3oc3ccccc34)CC2)cc1 [4-(4-phenyl-1-piperazinyl)benzofuro[3,2-d]pyrimidine]",> 95,–
"CCOc1cc(C2NCc3ccccc3-n3cccc32)ccc1O (stereo not given) [4-(5,6-dihydro-4H-pyrrolo[1,2-a][1,4]benzodiazepin-4-yl)-2-ethoxy-phenol;hydrochloride]",16.1,–
"Oc1ccc(-c2nnc(SCC3CCCCC3)o2)cc1 [4-(5-Cyclohexylmethylsulfanyl-[1,3,4]oxadiazol-2-yl)-phenol]",0.552,–
"CC(C)c1ccc2oc(-c3ccc(N)cc3)nc2c1 [4-(5-propan-2-yl-1,3-benzoxazol-2-yl)aniline]",2.64,–
"Cc1nc2sccn2c1-c1csc(NCc2ccccc2)n1 [4-(6-methyl-5-imidazo[2,1-b]thiazolyl)-N-(phenylmethyl)-2-thiazolamine]",2.77,–
O=C(Nc1nccs1)c1ccc(S(=O)(=O)NCC2CCCCC2)cc1 [4-(Cyclohexylmethyl-sulfamoyl)-N-thiazol-2-yl-benzamide],8.02,–
"Cc1ccc2[nH]c3c(N4CCCCCC4)ncnc3c2c1 [4-(azepan-1-yl)-8-methyl-5H-pyrimido[5,4-b]indole]",4.15,–
"CCOC(=O)c1cnc(-n2nc(C)cc2C)nc1NC1CCCCC1 [4-(cyclohexylamino)-2-(3,5-dimethyl-1-pyrazolyl)-5-pyrimidinecarboxylic acid ethyl ester]",6.37,–

SMILES,EC50 [µM],EC50 [1] [µM]
"CN(C)S(=O)(=O)c1ccc(C(=O)Nc2nc(-c3cccs3)cs2)cc1 [4-(dimethylsulfamoyl)-N-(4-thiophen-2-yl-1,3-thiazol-2-yl)benzamide]",> 10,–
"CCN(C1CCCCC1)S(=O)(=O)c1ccc(S(=O)(=O)NCc2ccncc2)cc1 [4-N-cyclohexyl-4-N-ethyl-1-N-(pyridin-4-ylmethyl)benzene-1,4-disulfonamide]",5.55,–
"CCOC(=O)N1CCN(C(=O)C2CCN(c3ncnc4c3sc3cccc(F)c34)CC2)CC1 [4-[1-(9-fluorobenzothiopheno[3,2-d]pyrimidin-4-yl)isonipecotoyl]piperazine-1-carboxylic acid ethyl ester]",5.92,–
Cc1ccc(Cl)cc1N1CCN(C(=O)COc2ccc(S(=O)(=O)NC(C)C)cc2)CC1 [4-[2-[4-(5-chloranyl-2-methyl-phenyl)piperazin-1-yl]-2-oxidanylidene-ethoxy]-N-propan-2-yl-benzenesulfonamide],–,12
CCCOC(=O)c1ccc(OCC(O)Cn2c(C)nc3ccccc32)cc1 (stereo not given) [4-[2-hydroxy-3-(2-methyl-1-benzimidazolyl)propoxy]benzoic acid propyl ester],8.15,–
COC(=O)c1ccc(OCC(O)Cn2nnc3ccccc32)cc1 (stereo not given) [4-[3-(1-benzotriazolyl)-2-hydroxypropoxy]benzoic acid methyl ester],> 95,–
"Cc1ccccc1-c1noc(-c2ccc(O)cc2)n1 [4-[3-(2-methylphenyl)-2H-1,2,4-oxadiazol-5-ylidene]-1-cyclohexa-2,5-dienone]",8.46,–
"O=C(c1cc(-c2ccc(O)cc2)on1)N1CCc2ccccc2C1 [4-[3-(3,4-dihydro-1H-isoquinolin-2-ylcarbonyl)-2H-1,2-oxazol-5-ylidene]cyclohexa-2,5-dien-1-one]",5.24,–
"O=C(Nc1cccc(C(F)(F)F)c1)N1CCC(c2nc(-c3ccc(F)cc3)no2)CC1 [4-[3-(4-Fluoro-phenyl)-[1,2,4]oxadiazol-5-yl]-piperidine-1-carboxylic acid (3-trifluoromethyl-phenyl)-amide]",7.37,–
"O=C(Nc1ccc(Cl)cc1)N1CCC(c2nc(-c3ccc(F)cc3)no2)CC1 [4-[3-(4-Fluoro-phenyl)-[1,2,4]oxadiazol-5-yl]-piperidine-1-carboxylic acid (4-chloro-phenyl)-amide]",5.07,–
"CCOC(=O)c1ccc(NC(=O)CCc2nc(-c3ccc(Cl)cc3)no2)cc1 [4-[3-[3-(4-chlorophenyl)-1,2,4-oxadiazol-5-yl]propanoylamino]benzoic acid ethyl ester]",–,13.3
"Fc1ccc2[nH]c3c(N4CCN(Cc5ccc6c(c5)OCO6)CC4)ncnc3c2c1 [4-[4-(1,3-benzodioxol-5-ylmethyl)-1-piperazinyl]-8-fluoro-5H-pyrimido[5,4-b]indole]",1.96,–
"COc1cccc(N2CCN(c3ncnc4c3[nH]c3ccccc34)CC2C)c1 (stereo not given) [4-[4-(3-methoxyphenyl)-3-methyl-1-piperazinyl]-5H-pyrimido[5,4-b]indole]",3.73,–
"Oc1ccc(N2CCN(c3ncnc4sc5c(c34)CCC5)CC2)cc1 [4-[4-(7,8-dihydro-6H-cyclopenta[4,5]thieno[1,2-c]pyrimidin-1-yl)-1-piperazinyl]phenol]",9.07,–
"CCCCOc1ncnc2c1[nH]c1ccc(F)cc12 [4-butoxy-8-fluoranyl-5H-pyrimido[5,4-b]indole]",2.73,–
"CCCCOc1ccc(S(=O)(=O)Nc2cc(OC)ccc2OC)cc1 [4-butoxy-N-(2,5-dimethoxyphenyl)benzenesulfonamide]",–,12.9
CCCCOc1ccc(S(=O)(=O)Nc2cccnc2)cc1 [4-butoxy-N-(3-pyridinyl)benzenesulfonamide],9.47,–
